Laboratory results taken from ChEMBL document CHEMBL1201862, “PubChem BioAssay data set” (2004).
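Grown in 96-well plates, cells were treated for 48 hours with each compound at five concentrations. Insufficient inhibition: endpoint recorded as highest concentration tested. GI50: concentration for 50% inhibition of growth.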 The source made the active and inactive calls. No stated cut-off is given here; in the data, active = GI50 up to about 1.1 µM and inactive = higher.

Tests used:
Test in all cases: NCI tumour cell line growth inhibition, 48 h
[1] = system: IGROV-1
[2] = system: UO-31
[3] = system: NCI-H23
[4] = system: T47D
[5] = system: HT-29
[6] = system: SF-539
[7] = system: UACC-62
[8] = system: M14
[9] = system: COLO 205
[10] = system: UACC-257
[11] = system: RPMI-8226
[12] = system: Hs-578T
[13] = system: 786-0
[14] = system: RXF 393
[15] = system: SW-620
[16] = system: A549
[17] = system: MDA-N
[18] = system: HOP-62
[19] = system: OVCAR-3
[20] = system: PC-3

Measured: GI50

Cc1ccc2c(c1C)CC1(Cc3c(C)ccc(C)c3C1=O)C2=O (stereo unspecified)
inactive: [1] > 100 µM | [2] > 100 µM | [3] > 100 µM | [4] > 100 µM | [5] > 100 µM | [6] > 100 µM | [7] > 100 µM | [8] > 100 µM | [9] > 100 µM | [10] > 100 µM | [11] > 100 µM | [12] > 100 µM | [13] > 100 µM | [14] > 100 µM | [15] > 100 µM | [16] > 100 µM | [17] > 100 µM

CCCCn1c(C)c2c(c1C)C(=O)N(CCN1CCN(c3ccccc3Cl)CC1)C2=O
inactive: [1] 30.9 µM | [2] 17.6 µM | [3] 27.2 µM | [4] 22.5 µM | [5] 16.4 µM | [18] 29 µM | [6] 17.9 µM | [7] 32.4 µM | [19] 50.7 µM | [8] 21.9 µM | [9] 35 µM | [10] 28.6 µM | [11] 24.7 µM | [12] > 100 µM | [13] > 10 µM | [15] 37.5 µM | [16] 38.2 µM | [20] 28.4 µM | [17] 34.6 µM

CCN(CC)C(=S)SS(=O)(=O)c1ccc(C)cc1
inactive: [2] 20.7 µM | [3] 42.4 µM | [4] 59.7 µM | [5] 13.2 µM | [18] 23.2 µM | [6] 16.9 µM | [7] 16.2 µM | [19] 39.6 µM | [8] 13.9 µM | [9] 22.3 µM | [10] 19.2 µM | [12] 75.5 µM | [13] 20.3 µM | [14] 16.8 µM | [15] 19.9 µM | [17] 27.9 µM

CC1CN=C(Nc2ccc(F)cc2F)S1 (stereo unspecified)
inactive: [1] > 100 µM | [2] > 100 µM | [3] > 100 µM | [4] 88.9 µM | [18] > 100 µM | [6] > 100 µM | [19] > 100 µM | [9] > 100 µM | [10] > 100 µM | [11] > 100 µM | [12] > 100 µM | [13] > 100 µM | [15] > 100 µM | [16] > 100 µM | [20] > 100 µM | [17] > 100 µM

C=CCNC1=C2C[C@@H](C)C[C@@H](OC)[C@H](OC(=O)CCCCN)[C@H](C)/C=C(\C)[C@@H](OC(N)=O)[C@H](OC)/C=C\C=C(/C)C(=O)NC(=CC1=O)C2=O
inactive: [1] 13.6 µM | [2] 19.5 µM | [3] 14.6 µM | [4] 14.8 µM | [5] 4.27 µM | [18] 5.83 µM | [7] 14.6 µM | [19] 3.22 µM | [8] 13.4 µM | [9] 5.22 µM | [10] 6.17 µM | [11] 9.04 µM | [12] 25.6 µM | [13] 13.4 µM | [14] 14.8 µM | [15] 6.18 µM | [16] 11.9 µM | [17] 8.55 µM

O=C1CSC(c2cccc([N+](=O)[O-])c2)N1c1ccc(-n2c(-c3ccccc3)nc3ccccc3c2=O)cc1 (stereo unspecified)
inactive: [1] > 100 µM | [2] 3.76 µM | [3] > 100 µM | [4] 6.68 µM | [5] > 100 µM | [18] > 100 µM | [6] > 100 µM | [7] 13.9 µM | [19] > 100 µM | [8] > 100 µM | [9] > 100 µM | [10] > 100 µM | [11] > 100 µM | [12] 78.2 µM | [13] > 100 µM | [15] > 100 µM | [16] > 100 µM | [20] > 100 µM | [17] > 100 µM

C=CCOc1cccc(C2(O)c3ccccc3C3=NCCCN32)c1 (stereo unspecified)
inactive: [1] 8.38 µM | [2] 13.8 µM | [3] 10.3 µM | [4] 17.4 µM | [5] 8.57 µM | [18] 6.84 µM | [6] 15.8 µM | [7] 16.1 µM | [19] 1.25 µM | [8] 12.4 µM | [9] 15 µM | [10] 16 µM | [11] 15.2 µM | [12] 28.6 µM | [13] 8.49 µM | [15] 11.9 µM | [16] 5.6 µM | [20] 10.3 µM | [17] 17.1 µM

COc1nc(=O)n(C2CC(N=[N+]=[N-])C(CO)O2)cc1C (stereo unspecified)
inactive: [1] > 100 µM | [2] 52 µM | [3] > 100 µM | [4] > 100 µM | [5] > 100 µM | [18] > 100 µM | [6] > 100 µM | [7] > 100 µM | [19] > 100 µM | [8] > 100 µM | [10] > 100 µM | [12] > 100 µM | [13] > 100 µM | [15] > 100 µM | [16] > 100 µM | [20] > 100 µM | [17] > 100 µM

O=C(Nc1ccc([N+](=O)[O-])cc1)Nn1cnnc1
inactive: [1] 80 µM | [2] 53.1 µM | [3] 13 µM | [4] 24 µM | [5] 26.2 µM | [18] 66.2 µM | [6] 25.7 µM | [7] 46.3 µM | [19] 12.2 µM | [8] > 100 µM | [9] > 100 µM | [10] 94 µM | [11] 49.7 µM | [12] 26.1 µM | [15] 89.7 µM | [16] 67.3 µM | [20] 42.1 µM | [17] 34 µM

CSC(SC)=C(C(=O)O)P(=O)(O)O
inactive: [1] > 100 µM | [3] > 100 µM | [4] > 100 µM | [5] > 100 µM | [18] > 100 µM | [6] > 100 µM | [7] > 100 µM | [19] > 100 µM | [8] > 100 µM | [9] > 100 µM | [10] > 100 µM | [12] > 100 µM | [13] > 100 µM | [14] > 100 µM | [15] > 100 µM | [16] > 100 µM | [20] > 100 µM | [17] > 100 µM

C[n+]1ccc(/C2=C3\C=CC(=N3)/C(c3cc[n+](C)cc3)=c3/cc/c([nH]3)=C(\c3cc[n+](C)cc3)C3=N/C(=C(/c4cc[n+](C)cc4)C4C=CC2N4)C=C3)cc1
inactive: [1] 71.4 µM | [2] > 100 µM | [3] > 100 µM | [4] > 100 µM | [5] 51.9 µM | [18] > 100 µM | [6] > 93.5 µM | [7] > 100 µM | [19] > 95.5 µM | [8] > 100 µM | [9] > 100 µM | [10] > 48.5 µM | [11] > 48.2 µM | [12] > 80 µM | [13] > 100 µM | [14] > 91.4 µM | [15] > 100 µM | [16] 80.2 µM | [17] > 100 µM
